Experimental data: patent US9290478B2, “Substituted quinoxalines as FGFR kinase inhibitors” (ASTEX THERAPEUTICS LTD, priority 2010, dated 2016)

What was measured:
[1] = system: Ba/F3-FGFR3-transfected cells; experiment: Ba/F3-FGFR3 (minus IL3 or plus IL3) cellular proliferation assay; type: cell-based; conditions: plus 10 ng/ml murine IL3 (counterscreen); for IC50: 24 h, read-out: BAF3-FGFR3 (PLUS IL3) pIC50 (converted)
Description: (§1) Ba/F3-FGFR3 (Minus IL3 or Plus IL3) (Cellular Proliferation Assay)
(§2) In a 384 well plate, 100 nI of compound dilution in DMSO was sprayed before adding 50 μl cell culture medium (phenol red free RPMI-1640, 10% FBS, 2 mM L-Glutamine and 50 μg/ml Gentamycin) containing 20000 cells per well of Ba/F3-FGFR3-transfected cells. Cells were put in an incubator at 37° C. and 5% CO2. After 24 hours, 10 μl of Alamar Blue solution (0.5 mM K3Fe(CN)6, 0.5 mM K4Fe(CN)6, 0.15 mM Resazurin and 100 mM Phosphate Buffer) was added to the wells, incubated for 4 hours at 37° C. and 5% CO2 before RFU's (Relative Fluorescence Units) (ex. 540 nm., em. 590 nm.) were measured in a fluororescence plate reader.
(§3) In this assay, the inhibitory effect of different compound concentrations (range 10 μM to 0.1 nM) was determined and used to calculate an IC50 (M) and pIC50 (−log IC50) value. As a counterscreen the same experiment was performed in the presence of 10 ng/ml murine IL3.

[2] = target: T1, Ba/F3-FGFR3-transfected cells (Homo sapiens, UniProt P22607); experiment: as above; type: cell-based; conditions: minus IL3
T1 construct: BAF3-FGFR3 (MIN IL3) pIC50; other: minus IL3
Description: as §1, §2, §3

[3] = system: Ba/F3-KDR-transfected cells; experiment: Ba/F3-KDR (minus IL3 or plus IL3) cellular proliferation assay; type: cell-based; conditions: plus 10 ng/ml murine IL3 (counterscreen); for IC50: 24 h, read-out: BAF3-KDR (PLUS IL3) pIC50 (converted)
Description: (§4) Ba/F3-KDR (Minus IL3 or Plus IL3) (Cellular Proliferation Assay)
as §2, with “Ba/F3-KDR-transfected” for “Ba/F3-FGFR3-transfected”
as §3

[4] = target: T2, Ba/F3-KDR-transfected cells (Homo sapiens, UniProt P35968); experiment: as above; type: cell-based; conditions: minus IL3
T2 construct: BAF3-KDR (MIN IL3) pIC50; other: minus IL3
Description: as §4
as §2, with “Ba/F3-KDR-transfected” for “Ba/F3-FGFR3-transfected”
as §3

[5] = system: Ba/F3-FGFR1-transfected cells; experiment: Ba/F3-FGFR1 (minus IL3 or plus IL3) cellular proliferation assay; type: cell-based; conditions: plus 10 ng/ml murine IL3 (counterscreen); for IC50: 24 h, read-out: BAF3-FGFR1 (PLUS IL3) pIC50 (converted)
Description: (§5) Ba/F3-FGFR1 (Minus IL3 or Plus IL3) (Cellular Proliferation Assay)
as §2, with “nl” for “nI”, “Ba/F3-FGFR1-transfected” for “Ba/F3-FGFR3-transfected”
(§6) In this assay, the inhibitory effect of different compound concentrations (range 10 μM to 0.1 nM) was determined and used to calculate an IC50 (M) and pIC50 (−log IC50) value.
(§7) As a counterscreen the same experiment was performed in the presence of 10 ng/ml murine IL3.

[6] = target: T3, Ba/F3-FGFR1-transfected cells (Homo sapiens, UniProt P11362); experiment: as above; type: cell-based; conditions: minus IL3
T3 construct: BAF3-FGFR1 (MIN IL3) pIC50; other: minus IL3
Description: as §5
as §2, with “nl” for “nI”, “Ba/F3-FGFR1-transfected” for “Ba/F3-FGFR3-transfected”
as §6, §7

FGFR1 (h) = FGFR1 (h) (Homo sapiens, UniProt P11362); experiment: FGFR1 (enzymatic assay), TR-FRET; type: biochemical; conditions: 5 μM ATP; read-out: FGFR1 pIC50 (converted)
Description: (§8) In a final reaction volume of 30 μL, FGFR1 (h) (25 ng/ml) was incubated with 50 mM HEPES pH 7.5, 6 mM MnCl2, 1 mM DTT, 0.1 mM Na3VO4, 0.01% Triton-X-100, 500 nM Btn-Flt3 and 5 μM ATP in the presence of compound (1% DMSO final). After incubation for 60 minutes at room temperature the reaction was stopped with 2.27 nM EU-anti P-Tyr, 7 mM EDTA, 31.25 nM SA-XL-665 and 0.02% BSA which was present for 60 minutes at room temperature. Time-Resolved Fluorescence Resonance Energy Transfer (TR-FRET) signal (ex340 nm. Em 620 nm, em 655 nm) was measured afterwards and results are expressed in RFU (Relative Fluorescence Units). In this assay, the inhibitory effect of different compound concentrations (range 10 μM to 0.1 nM) was determined and used to calculate an IC50 (M) and pIC50 (−log IC50) value.

FGFR4 (h) = FGFR4 (h) (Homo sapiens, UniProt P22455); experiment: FGFR4 (enzymatic assay), TR-FRET; type: biochemical; conditions: 5 μM ATP; for IC50: read-out: FGFR4 pIC50 (converted)
Description: as §8, with “FGFR4” for “FGFR1”, “(60” for “(25”

T1 sequence (P22607 whole entry, change not shown): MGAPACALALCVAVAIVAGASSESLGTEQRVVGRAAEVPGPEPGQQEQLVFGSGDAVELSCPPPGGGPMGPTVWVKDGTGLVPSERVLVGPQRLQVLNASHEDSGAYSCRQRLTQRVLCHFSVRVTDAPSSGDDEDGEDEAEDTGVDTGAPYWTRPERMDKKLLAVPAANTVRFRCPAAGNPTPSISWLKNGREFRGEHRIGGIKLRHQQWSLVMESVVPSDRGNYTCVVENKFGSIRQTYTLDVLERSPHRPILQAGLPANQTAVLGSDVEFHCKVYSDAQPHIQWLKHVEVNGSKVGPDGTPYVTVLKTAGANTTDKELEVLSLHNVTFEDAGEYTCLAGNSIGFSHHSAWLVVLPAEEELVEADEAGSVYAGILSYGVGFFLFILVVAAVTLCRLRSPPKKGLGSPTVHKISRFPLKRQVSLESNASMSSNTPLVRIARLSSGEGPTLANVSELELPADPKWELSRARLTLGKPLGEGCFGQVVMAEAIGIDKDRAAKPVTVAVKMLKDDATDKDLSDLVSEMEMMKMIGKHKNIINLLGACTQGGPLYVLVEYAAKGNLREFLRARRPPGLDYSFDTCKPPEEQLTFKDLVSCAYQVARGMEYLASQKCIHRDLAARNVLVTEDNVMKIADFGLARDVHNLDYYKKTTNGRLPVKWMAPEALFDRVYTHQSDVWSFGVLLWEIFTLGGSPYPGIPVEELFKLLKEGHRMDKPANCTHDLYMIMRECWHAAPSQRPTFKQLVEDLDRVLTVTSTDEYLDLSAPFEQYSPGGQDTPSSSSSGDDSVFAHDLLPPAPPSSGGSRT
Chain of FGFR4 (h) (P22455 22-802): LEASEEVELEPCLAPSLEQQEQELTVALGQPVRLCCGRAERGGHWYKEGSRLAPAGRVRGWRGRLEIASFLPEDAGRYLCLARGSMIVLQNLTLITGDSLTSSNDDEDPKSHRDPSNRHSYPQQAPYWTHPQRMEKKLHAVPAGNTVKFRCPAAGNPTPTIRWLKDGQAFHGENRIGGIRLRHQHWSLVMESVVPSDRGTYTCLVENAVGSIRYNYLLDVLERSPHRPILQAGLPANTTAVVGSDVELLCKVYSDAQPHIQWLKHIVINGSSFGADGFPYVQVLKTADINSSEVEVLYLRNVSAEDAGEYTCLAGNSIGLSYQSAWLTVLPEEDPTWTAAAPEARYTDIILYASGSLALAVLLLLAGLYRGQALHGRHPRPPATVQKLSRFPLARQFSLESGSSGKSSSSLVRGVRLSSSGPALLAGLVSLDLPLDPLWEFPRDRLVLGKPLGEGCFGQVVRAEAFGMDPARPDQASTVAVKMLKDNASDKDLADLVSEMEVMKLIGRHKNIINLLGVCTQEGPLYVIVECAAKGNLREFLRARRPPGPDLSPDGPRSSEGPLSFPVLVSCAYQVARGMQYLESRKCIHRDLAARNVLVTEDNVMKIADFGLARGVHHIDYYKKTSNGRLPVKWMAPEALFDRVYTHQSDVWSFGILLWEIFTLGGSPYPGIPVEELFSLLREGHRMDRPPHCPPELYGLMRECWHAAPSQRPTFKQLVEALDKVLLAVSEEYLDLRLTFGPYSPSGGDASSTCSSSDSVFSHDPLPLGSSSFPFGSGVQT
T2 sequence (P35968 whole entry, change not shown): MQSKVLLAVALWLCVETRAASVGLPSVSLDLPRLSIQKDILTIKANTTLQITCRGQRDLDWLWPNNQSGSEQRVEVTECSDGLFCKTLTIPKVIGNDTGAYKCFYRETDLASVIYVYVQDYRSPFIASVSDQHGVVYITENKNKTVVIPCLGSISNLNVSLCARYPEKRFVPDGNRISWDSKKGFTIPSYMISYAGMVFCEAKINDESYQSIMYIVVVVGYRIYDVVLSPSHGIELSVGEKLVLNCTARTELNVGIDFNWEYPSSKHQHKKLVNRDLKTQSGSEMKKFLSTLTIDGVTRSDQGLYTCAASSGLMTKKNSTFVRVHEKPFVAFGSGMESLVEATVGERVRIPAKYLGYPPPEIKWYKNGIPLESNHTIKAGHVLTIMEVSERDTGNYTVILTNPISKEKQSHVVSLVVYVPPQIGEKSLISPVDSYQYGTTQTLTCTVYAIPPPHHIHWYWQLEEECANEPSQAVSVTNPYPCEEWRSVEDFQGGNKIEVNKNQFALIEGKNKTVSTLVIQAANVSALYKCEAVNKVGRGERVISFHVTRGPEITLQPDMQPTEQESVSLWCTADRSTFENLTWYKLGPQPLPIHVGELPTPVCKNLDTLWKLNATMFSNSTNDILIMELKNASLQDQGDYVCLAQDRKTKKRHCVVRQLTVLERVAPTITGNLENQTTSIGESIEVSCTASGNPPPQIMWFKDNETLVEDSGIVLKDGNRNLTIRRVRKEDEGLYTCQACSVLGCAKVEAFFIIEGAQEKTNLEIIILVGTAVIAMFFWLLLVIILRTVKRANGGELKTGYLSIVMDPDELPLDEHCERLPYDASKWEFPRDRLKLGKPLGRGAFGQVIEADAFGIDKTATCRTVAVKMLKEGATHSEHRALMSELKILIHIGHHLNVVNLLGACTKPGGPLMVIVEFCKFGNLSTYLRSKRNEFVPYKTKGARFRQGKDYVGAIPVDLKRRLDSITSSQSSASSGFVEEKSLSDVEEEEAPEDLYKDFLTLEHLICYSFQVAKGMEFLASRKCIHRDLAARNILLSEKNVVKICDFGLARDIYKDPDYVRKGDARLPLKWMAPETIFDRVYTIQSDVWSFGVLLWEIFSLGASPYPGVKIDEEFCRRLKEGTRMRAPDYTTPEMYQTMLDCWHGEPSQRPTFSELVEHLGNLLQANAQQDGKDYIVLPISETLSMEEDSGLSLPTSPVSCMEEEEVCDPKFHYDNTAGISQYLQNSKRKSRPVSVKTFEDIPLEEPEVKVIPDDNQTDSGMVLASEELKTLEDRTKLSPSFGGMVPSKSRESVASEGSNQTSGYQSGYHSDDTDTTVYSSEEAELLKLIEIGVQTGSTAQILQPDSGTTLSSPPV
T3 sequence (P11362 whole entry, change not shown): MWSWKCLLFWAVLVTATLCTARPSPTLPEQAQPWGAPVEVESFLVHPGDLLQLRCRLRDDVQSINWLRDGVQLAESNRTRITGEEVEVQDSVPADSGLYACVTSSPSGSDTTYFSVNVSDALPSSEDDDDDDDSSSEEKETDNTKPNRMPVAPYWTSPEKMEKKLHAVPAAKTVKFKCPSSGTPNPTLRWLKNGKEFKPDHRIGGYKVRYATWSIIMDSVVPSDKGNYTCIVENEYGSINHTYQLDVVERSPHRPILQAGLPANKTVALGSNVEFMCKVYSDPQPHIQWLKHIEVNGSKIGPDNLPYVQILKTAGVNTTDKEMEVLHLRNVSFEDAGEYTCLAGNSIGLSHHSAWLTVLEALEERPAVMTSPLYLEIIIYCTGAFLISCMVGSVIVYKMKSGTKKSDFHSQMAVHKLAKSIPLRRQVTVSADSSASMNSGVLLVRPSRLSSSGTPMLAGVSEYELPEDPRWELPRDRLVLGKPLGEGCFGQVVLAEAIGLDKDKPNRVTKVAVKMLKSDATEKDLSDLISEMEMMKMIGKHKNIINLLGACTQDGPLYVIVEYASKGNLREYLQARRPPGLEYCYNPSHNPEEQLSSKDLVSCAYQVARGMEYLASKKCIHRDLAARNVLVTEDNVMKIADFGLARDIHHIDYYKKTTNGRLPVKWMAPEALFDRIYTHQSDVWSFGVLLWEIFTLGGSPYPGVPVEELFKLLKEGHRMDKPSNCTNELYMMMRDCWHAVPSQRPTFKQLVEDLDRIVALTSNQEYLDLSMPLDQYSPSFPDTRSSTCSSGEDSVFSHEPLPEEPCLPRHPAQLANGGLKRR
Chain of FGFR1 (h) (P11362 22-822): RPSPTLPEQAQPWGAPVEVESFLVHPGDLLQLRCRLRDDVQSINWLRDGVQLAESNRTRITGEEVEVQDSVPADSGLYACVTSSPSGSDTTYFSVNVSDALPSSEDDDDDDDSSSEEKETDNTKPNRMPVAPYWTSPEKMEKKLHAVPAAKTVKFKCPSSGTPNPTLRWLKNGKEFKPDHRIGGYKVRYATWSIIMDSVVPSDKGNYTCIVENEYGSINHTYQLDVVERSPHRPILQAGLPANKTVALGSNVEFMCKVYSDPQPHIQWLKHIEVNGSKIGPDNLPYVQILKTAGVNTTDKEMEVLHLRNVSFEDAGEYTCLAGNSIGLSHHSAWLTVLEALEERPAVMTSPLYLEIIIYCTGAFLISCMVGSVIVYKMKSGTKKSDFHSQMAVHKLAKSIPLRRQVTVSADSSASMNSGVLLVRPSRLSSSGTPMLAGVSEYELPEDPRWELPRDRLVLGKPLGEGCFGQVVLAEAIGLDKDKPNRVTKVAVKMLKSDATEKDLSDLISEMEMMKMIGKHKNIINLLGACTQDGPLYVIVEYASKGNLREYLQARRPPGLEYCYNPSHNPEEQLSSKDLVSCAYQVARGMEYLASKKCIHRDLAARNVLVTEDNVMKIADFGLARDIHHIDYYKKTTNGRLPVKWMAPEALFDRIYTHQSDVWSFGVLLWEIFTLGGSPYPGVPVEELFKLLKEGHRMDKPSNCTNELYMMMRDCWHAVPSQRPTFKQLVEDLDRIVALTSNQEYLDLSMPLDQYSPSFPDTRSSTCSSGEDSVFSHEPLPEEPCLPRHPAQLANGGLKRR

| Compound | IC50 [1] | BAF3-FGFR3 (MIN IL3) pIC50 [2] | IC50 [3] | BAF3-KDR (MIN IL3) pIC50 [4] | IC50 [5] | BAF3-FGFR1 (MIN IL3) pIC50 [6] | IC50 (FGFR1 (h)) | IC50 (FGFR4 (h)) | BAF3-FGFR3 (PLUS IL3) pIC50 [1] | BAF3-KDR (PLUS IL3) pIC50 [3] | BAF3-FGFR1 (PLUS IL3) pIC50 [5] | FGFR4 pIC50 (FGFR4 (h)) |
| --- | --- | --- | --- | --- | --- | --- | --- | --- | --- | --- | --- | --- |
| COc1cc(OC)cc(C(O)(CNCCNC(C)C)c2ccc3ncc(-c4cnn(C)c4)nc3c2)c1 (single isomer, unassigned) [Compound 5] | > 10000 nM | <5 | > 10000 nM | <5 | > 10000 nM | <5 | 603 nM | > 1000 nM | – | – | – | – |
| COc1cc(OC)cc(C(O)(CNCCNC(C)C)c2ccc3ncc(-c4cnn(C)c4)nc3c2)c1 (single isomer, unassigned) [Compound 6] | – | <5 | – | <5 | – | <5 | 955 nM | – | – | – | – | – |
| COc1cc(OC)cc(C(CCNC(C)C)c2ccc3ncc(-c4cnn(C)c4)nc3c2)c1 (single isomer, unassigned) [Compound 19a] | > 10000 nM | 6.67 | > 10000 nM | <5 | > 10000 nM | 6.93 | 7.59 nM | 145 nM | – | – | – | – |
| COc1cc(OC)cc(C(NCCNC(C)C)c2ccc3ncc(-c4cnn(C)c4)nc3c2)c1.Cl (single isomer, unassigned) [Compound 24] | > 10000 nM | 5.29 | > 10000 nM | <5 | > 10000 nM | 5.16 | 182 nM | > 1000 nM | – | – | – | – |
| COc1cc(OC)cc(C(CCNC(C)C)c2ccc3ncc(-c4cnn(C)c4)nc3c2)c1 (single isomer, unassigned) [Compound 32a] | – | ~5.03 | – | <5 | – | 5.14 | 661 nM | 5500 nM | <5 | <5 | <5 | – |
| CNCC(O)(c1cc(OC)cc(OC)c1)c1ccc2ncc(-c3cnn(C)c3)nc2c1.Cl (single isomer, unassigned) [Compound 37] | > 10000 nM | <5 | > 10000 nM | <5 | > 10000 nM | <5 | ~891 nM | > 1000 nM | – | – | – | – |
| CNCC(O)(c1cc(OC)cc(OC)c1)c1ccc2ncc(-c3cnn(C)c3)nc2c1.Cl (single isomer, unassigned) [Compound 38] | – | <5 | – | <5 | – | <5 | 776 nM | – | <5 | <5 | <5 | <6 |
| COc1cc(OC)cc(C(NCCNC(C)C)c2ccc3ncc(-c4cnn(C)c4)nc3c2)c1.Cl (single isomer, unassigned) [Compound 39] | – | <5 | – | <5 | – | <5 | > 1000 nM | – | <5 | <5 | <5 | <6 |
| COc1cc(OC)cc(C(=O)c2ccc3ncc(-c4cnn(C)c4)nc3c2)c1 [Compound 2] | > 10000 nM | 5.17 | > 10000 nM | <5 | > 10000 nM | 5.58 | 117 nM | ~10000 nM | – | – | – | – |
| COc1cc(OC)cc(/C(=C/C#N)c2ccc3ncc(-c4cnn(C)c4)nc3c2)c1 [Compound 3] | > 10000 nM | 5.29 | > 10000 nM | <5 | > 10000 nM | <5 | 2290 nM | > 10000 nM | – | – | – | – |
| COc1cc(OC)cc(/C(=C\C#N)c2ccc3ncc(-c4cnn(C)c4)nc3c2)c1 [Compound 4] | > 10000 nM | 5.76 | > 10000 nM | <5 | > 10000 nM | 5.3 | 53.7 nM | 363 nM | – | – | – | – |
| COc1cc(OC)cc(C(CCN2CCCC2=O)c2ccc3ncc(-c4cnn(C)c4)nc3c2)c1.Cl (stereo not drawn) [Compound 7] | > 10000 nM | 5.8 | > 10000 nM | 5.13 | > 10000 nM | 5.52 | 56.2 nM | 158 nM | – | – | – | – |
| COc1cc(OC)cc(/C(=C\CNC(C)C)c2ccc3ncc(-c4cnn(C)c4)nc3c2)c1 [Compound 8, {(Z)-3-(3,5-Dimethoxy-phenyl)-3-[3-(1-methyl-1H-pyrazol-4-yl)-quinoxalin-6-yl]-allyl}-isopropyl-amine] | > 10000 nM | 6.72 | > 10000 nM | 5.18 | > 10000 nM | 6.49 | 7.76 nM | 126 nM | – | – | – | – |
| COc1cc(OC)cc(/C(=C/CNC(C)C)c2ccc3ncc(-c4cnn(C)c4)nc3c2)c1 [Compound 9] | > 10000 nM | 6.82 | > 10000 nM | <5 | > 10000 nM | 6.51 | 60.3 nM | 1480 nM | – | – | – | – |
